System: human γ (Huγ) mRNA in K562 cells
Test: γ globin mRNA induction in K562 cells by RNase protection assay
Type: cell-based
Conditions: K562
Description: Cell Culture. K562 cells were grown in suspension cultures in RPMI-1640 containing 10% fetal bovine serum, penicillin (100 U/ml) and streptomycin (0.1 mg/ml in a humidified incubator at 37° C. in a 5%CO2/95% air atmosphere. The following experimental conditions were analyzed in triplicate with 2×10^6 cells per well: an untreated control, ZL dissolved in 0.1% dimethylsulfoximide (DMSO) at final concentrations of […], HU at […] and two positive controls hemin (50 mM) and sodium butyrate (NB) 2 mM. The K562 cells were induced for 72 hours then RNA isolated for further analysis. Cell viability was completed by 2% trypan blue exclusion at timnes 0 and 72 hours.
RNA Isolation. RNA was isolated using RNA Stat-60 (TEL-TEST “B”, Inc., Friendswood, Tex.) according to the manufacturer's instructions. In brief, cell pellets will be suspended in RNA Stat-60 (1 ml) and chloroform (200 μl), and the RNA extracted and precipitated with isopropanol.
RNase Protection Analysis. MRNA levels will be quantitated by RNase protection assay (RPA) with probes designed to yield protected fragments for human γ (Huγ)and the internal control glyceraldehydes-3-phosphate dehydrogenase (GAPD). Huγ mRNA levels were normalized to that of GAPD and compared to the untreated K562 cells. (Zar: Statistical Analysis, Englewood)
Several pharmacological hemoglobin F inducers such as HU, 5-azacytidine, erythropoietin, didox, and butyrate alter γ gene expression in culture. The induction of γ gene activity in culture is a good indicator of potential clinical usefulness. Therefore the capability of ZL to induce γ gene activity at the mRNA level was tested. K562 cells were cultured in ZL from 0 to 100 μM or HU (50μ to 100 μM) for 48 hours. Total cellular RNA was analyzed by RPA for γ mRNA levels. An increase in γ mRNA for ZL at 20 μM with a maximal response at 75 μM (FIG. 4A) was observed. The level of γ gene mRNA synthesis was quantitated relative to the internal control, CAPD. […] K562 cell viability was decreased 10% when measured using trypan blue exclusion at 75 μM and 100 μM concentrations for both ZL and HU. The level of γ gene induction was 3.9 fold and 10-fold for the positive controls NB and hemin, respectively.

Molecule | level of γ gene induction (positive control NB 2 mM) [fold] | level of γ gene induction (positive control hemin (50 µM)) [fold]
CCCC(=O)[O-].[Na+] [NB, sodium butyrate] | 3.9 | 
hemin |  | 10

— patent publication US7026344B2, “Treating sickle cell disease” (priority 2000, dated 2006)
